According to the NIST ThermoML archive (doi:10.1021/je0603067):
Numbers after ± are expanded uncertainties.

Details: Crystal; Heating/Cooling curves

Structure (SMILES) | Triple point temperature
O=C=O [carbon dioxide] | 216.56 ± 0.2 K
[N-]=[N+]=O [nitrous oxide] | 181.99 ± 0.2 K
FC(F)C(F)(F)F [pentafluoroethane] | 173.05 ± 0.2 K
